Test results reported in patent US8562949B2, “Radiolabeled dihydrotetrabenazine derivatives and their use as imaging agents” (The Trustees of the University of Pennsylvania, priority 2006, dated 2013).

Columns and labels:
monoamine transporter = monoamine transporter (UniProt Q27963); conditions: membranes of chromaffin granules and brain tissue samples; cited from earlier work
VMAT2 [1] = target: VMAT2 (Mus musculus, UniProt Q8BRU6); experiment: In vitro autoradiography of mouse brain sections; assay type: binding
[2] = Uptake in diabetic mice (FIG. 6); assay type: in vivo
VMAT2 [3] = target: VMAT2 (Rattus norvegicus, UniProt Q01827); experiment: Competition for [3H](±)TBZ binding in rat striatal homogenates; set-up: The basal forebrain regions of rat and mouse brains were then dissected; from tissue; host or cells: rat striatum / basal forebrain homogenate; conditions: [3H](±)TBZ 1.0-1.5 nM, Kd […] used for calculation
Sequence of VMAT2 (Rattus norvegicus, UniProt Q01827) (Q01827 whole entry): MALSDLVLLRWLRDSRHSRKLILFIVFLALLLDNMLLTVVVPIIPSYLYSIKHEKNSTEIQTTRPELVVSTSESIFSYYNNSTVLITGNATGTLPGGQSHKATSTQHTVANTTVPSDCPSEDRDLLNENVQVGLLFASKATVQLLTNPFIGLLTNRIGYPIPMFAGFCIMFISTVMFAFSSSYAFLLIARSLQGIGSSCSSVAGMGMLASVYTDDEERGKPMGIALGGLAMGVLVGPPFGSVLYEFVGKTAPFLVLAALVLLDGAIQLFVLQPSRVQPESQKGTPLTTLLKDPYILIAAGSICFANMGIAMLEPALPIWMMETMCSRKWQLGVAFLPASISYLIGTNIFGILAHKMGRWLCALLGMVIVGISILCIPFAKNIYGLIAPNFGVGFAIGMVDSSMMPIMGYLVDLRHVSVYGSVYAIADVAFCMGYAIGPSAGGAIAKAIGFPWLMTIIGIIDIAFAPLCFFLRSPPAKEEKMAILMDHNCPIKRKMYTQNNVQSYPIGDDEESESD

Sequence of VMAT2 (Mus musculus, UniProt Q8BRU6) (Q8BRU6 whole entry): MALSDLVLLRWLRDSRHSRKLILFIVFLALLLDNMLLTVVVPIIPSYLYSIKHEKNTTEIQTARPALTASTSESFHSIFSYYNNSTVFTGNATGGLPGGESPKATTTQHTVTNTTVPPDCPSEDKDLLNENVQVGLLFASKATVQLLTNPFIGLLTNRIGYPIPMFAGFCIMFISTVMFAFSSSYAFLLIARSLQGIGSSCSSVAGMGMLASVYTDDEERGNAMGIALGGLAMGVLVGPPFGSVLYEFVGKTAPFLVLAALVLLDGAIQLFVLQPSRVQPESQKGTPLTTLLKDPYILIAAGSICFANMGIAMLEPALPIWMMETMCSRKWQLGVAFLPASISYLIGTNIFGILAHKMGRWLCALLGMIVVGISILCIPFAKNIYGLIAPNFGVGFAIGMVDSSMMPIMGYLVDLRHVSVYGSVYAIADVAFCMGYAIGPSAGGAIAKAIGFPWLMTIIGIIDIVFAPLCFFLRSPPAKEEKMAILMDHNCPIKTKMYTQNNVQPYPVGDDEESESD

COc1cc2c(cc1OC)C1CC(O)C(CC(C)C)CN1CC2 (stereo not shown) [[^3H]dihydro-TBZ, 2-hydroxy-3-(2-methylpropyl)-9,10-dimethoxy-1,3,4,6,7,11b-hexahydro-2H-benzo[a]quinolizine]
Kd (monoamine transporter): 2 to 9 nM

COc1cc2c(cc1OCCCF)CCN1CC(CC(C)C)C(O)CC21 (racemic) [[^18F]6b]
regional labeling in presence of 1 μM (±)TBZ (VMAT2 [1]): completely eliminated

COc1cc2c(cc1OCCCF)CCN1CC(CC(C)C)C(O)CC21 (stereo not drawn) [FP-(+)-DTBZ]
uptake in diabetic mice [2]: reduced
Ki (VMAT2 [3]): 0.1 nM
